Test results: article PMC4045134, “Discovery of Triterpenoids as Reversible Inhibitors of α/β-hydrolase Domain Containing 12 (ABHD12)” (PLoS ONE, 2014)
“Also recorded” adds a separate entry of the source. Where two headings read alike, the source gives them in different places.

Tests used:
Format in all cases: biochemical
hABHD12 [1] = molecular target: T1, hABHD12 (Homo sapiens, UniProt Q8N2K0); experiment: Reversibility testing, 40-fold dilution of enzyme-inhibitor complex; settings: time points 10, 20, 30, 60 and 90 min
T1 construct: expressed in transfected cells; host or cells: HEK293 (transient)
T1 sequence (Q8N2K0 1-398): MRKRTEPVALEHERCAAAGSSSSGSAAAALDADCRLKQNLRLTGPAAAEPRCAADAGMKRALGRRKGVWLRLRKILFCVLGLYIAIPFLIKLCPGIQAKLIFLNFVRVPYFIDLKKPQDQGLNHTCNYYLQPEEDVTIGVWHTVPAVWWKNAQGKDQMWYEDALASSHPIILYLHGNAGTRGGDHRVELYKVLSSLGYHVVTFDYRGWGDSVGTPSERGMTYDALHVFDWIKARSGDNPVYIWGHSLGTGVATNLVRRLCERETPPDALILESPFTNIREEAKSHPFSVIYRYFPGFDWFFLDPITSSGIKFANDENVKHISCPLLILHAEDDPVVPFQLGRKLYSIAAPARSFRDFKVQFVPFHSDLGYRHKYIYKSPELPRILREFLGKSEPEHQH
Method: Reversibility testing was carried out as previously described. Briefly, DMSO/inhibitor (0.5 µl) was incubated together with hABHD12-HEK293 lysate (4.5 µl, 0.3 µg protein/well) in TEMN-BSA buffer for 30 min. After this, a 40-fold dilution of enzyme-inhibitor complex was brought about by addition of the substrate [1-AG, 12.5 µM final concentration, containing additionally 1% EtOH (v/v)] in 195 µl of glycerol assay mix and fluorescence was kinetically monitored at 10 min intervals for 90 min at RT.

hFAAH = molecular target: T2, hFAAH (Homo sapiens, UniProt O00519); experiment: FAAH activity, membranes of hFAAH overexpressing COS-7 cells, 3H-anandamide; settings: read-out: hFAAH Remaining activity % control (mean (range)), n=2
T2 construct: expressed in transfected cells; host or cells: COS-7
T2 sequence (O00519 1-579): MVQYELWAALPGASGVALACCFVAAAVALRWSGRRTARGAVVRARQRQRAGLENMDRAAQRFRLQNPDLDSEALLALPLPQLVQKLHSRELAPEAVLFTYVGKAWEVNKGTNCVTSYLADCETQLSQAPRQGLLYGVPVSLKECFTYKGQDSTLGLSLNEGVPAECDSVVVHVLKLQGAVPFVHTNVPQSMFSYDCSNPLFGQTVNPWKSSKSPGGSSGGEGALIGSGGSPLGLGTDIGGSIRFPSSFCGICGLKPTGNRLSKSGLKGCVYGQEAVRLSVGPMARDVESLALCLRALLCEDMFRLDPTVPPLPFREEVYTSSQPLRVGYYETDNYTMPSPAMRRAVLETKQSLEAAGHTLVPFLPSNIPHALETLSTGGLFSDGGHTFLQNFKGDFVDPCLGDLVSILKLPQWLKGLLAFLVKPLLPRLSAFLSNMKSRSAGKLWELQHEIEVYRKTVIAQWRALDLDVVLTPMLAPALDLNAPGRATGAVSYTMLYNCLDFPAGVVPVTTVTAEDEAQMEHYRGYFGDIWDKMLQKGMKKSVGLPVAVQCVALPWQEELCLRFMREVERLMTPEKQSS
Method: (§1) Glycerol liberated from 1-AG hydrolysis was determined with a sensitive fluorescent assay using lysates of HEK293 cells with transient overexpression of hABHD12, hABHD6 or hMAGL, essentially as previously described. […] Fluorescence (λex 530; λem 590 nm) was monitored using a Tecan Infinite M200 plate reader (Tecan Group Ltd., Männedorf, Switzerland). Inhibitory activities of selected compounds towards FAAH were determined using membranes of hFAAH overexpressing COS-7 cells, essentially as previously described. The final incubation volume (100 µL) contained 1 µg of protein and the substrate concentration was 20 µM (10 nM of ^3H-anandamide having specific activity of 60 Ci/mmol and concentration of 1 mCi/mL).

hMAGL = molecular target: T3, hMAGL (Homo sapiens, UniProt Q99685); experiment: Fluorescent glycerol assay in hMAGL-HEK293 lysates; settings: 10 µM; read-out: hMAGL Remaining activity % control ± s.e.m (n=3)
T3 construct: expressed in transfected cells; host or cells: HEK293 (transient)
T3 sequence (Q99685 1-303): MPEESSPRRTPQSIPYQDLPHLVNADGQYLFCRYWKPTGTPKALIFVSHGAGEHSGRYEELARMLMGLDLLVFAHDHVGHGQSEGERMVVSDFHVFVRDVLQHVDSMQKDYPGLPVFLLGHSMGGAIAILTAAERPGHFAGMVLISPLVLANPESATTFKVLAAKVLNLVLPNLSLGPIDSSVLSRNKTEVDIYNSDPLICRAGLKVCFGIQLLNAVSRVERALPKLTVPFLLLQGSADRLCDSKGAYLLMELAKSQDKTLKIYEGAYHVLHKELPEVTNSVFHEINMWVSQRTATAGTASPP
Method: as §1

hCB2R = molecular target: T4, hCB2R (Homo sapiens, UniProt P34972); experiment: [35S]GTPγS binding, CB2R agonist activity, hCB2R-CHO cell membranes; settings: 10 µM
T4 construct: expressed in transfected cells; host or cells: CHO
T4 sequence (P34972 whole entry): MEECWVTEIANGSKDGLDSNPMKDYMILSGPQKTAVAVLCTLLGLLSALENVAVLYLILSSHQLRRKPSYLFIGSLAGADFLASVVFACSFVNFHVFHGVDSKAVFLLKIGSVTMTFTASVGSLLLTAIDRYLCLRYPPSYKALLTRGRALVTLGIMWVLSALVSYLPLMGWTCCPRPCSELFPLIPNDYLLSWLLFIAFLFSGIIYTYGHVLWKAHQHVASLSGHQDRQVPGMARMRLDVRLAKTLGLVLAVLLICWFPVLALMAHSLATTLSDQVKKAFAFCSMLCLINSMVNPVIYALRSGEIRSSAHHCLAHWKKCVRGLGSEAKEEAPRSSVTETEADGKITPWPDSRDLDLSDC

hABHD6 = molecular target: T5, hABHD6 (Homo sapiens, UniProt Q9BV23); experiment: Fluorescent glycerol assay in hABHD6-HEK293 lysates; settings: 10 µM; NI = no inhibition at 10 µM; read-out: hABHD6 Remaining activity % control ± s.e.m (n=3)
T5 construct: expressed in transfected cells; host or cells: HEK293 (transient)
T5 sequence (Q9BV23 1-337): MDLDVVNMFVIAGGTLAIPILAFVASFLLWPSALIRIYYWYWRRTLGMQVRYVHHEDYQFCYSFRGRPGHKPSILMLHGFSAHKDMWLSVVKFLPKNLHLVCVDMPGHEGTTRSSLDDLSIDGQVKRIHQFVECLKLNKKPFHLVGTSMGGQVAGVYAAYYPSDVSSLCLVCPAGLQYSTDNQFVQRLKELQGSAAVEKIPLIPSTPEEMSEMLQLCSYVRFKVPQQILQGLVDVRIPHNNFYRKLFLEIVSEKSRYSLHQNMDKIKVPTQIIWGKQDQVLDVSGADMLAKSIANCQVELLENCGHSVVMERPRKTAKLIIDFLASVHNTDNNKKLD
Method: as §1

CB1R [2] = molecular target: T6, CB1R (Rattus norvegicus, UniProt P20272); experiment: [35S]GTPγS binding, CB1R antagonist activity, rat cerebellar membranes; settings: 10 µM
T6 construct: membranes prepared from brain tissue of 4-week-old male rodents were used; from tissue; host or cells: rat cerebellar membranes
T6 sequence (P20272 whole entry): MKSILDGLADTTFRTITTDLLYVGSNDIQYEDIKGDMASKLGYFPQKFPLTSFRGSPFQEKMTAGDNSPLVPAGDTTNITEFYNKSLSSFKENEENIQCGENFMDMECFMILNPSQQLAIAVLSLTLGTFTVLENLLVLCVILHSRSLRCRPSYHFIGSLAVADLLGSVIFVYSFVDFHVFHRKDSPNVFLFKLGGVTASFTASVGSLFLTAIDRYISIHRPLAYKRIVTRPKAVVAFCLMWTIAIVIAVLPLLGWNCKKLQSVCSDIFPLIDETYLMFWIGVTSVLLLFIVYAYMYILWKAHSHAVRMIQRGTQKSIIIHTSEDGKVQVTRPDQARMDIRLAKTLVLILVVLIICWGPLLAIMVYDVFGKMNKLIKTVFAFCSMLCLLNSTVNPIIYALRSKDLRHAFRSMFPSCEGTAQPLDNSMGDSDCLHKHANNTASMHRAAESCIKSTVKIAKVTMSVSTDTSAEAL
Method: (§2) The CB1 and CB2 receptor activity of the selected compounds (10 µM) were measured using the GTPγS binding assay according to the previously described methods, [33].
(§3) For ABPP experiments (Figure 6C) and cannabinoid receptor activity assays (Table S2), membranes prepared from brain tissue of 4-week-old male rodents were used. The animals were obtained from the National Laboratory Animal Centre, University of Eastern Finland. Approval for the harvesting of animal tissue was obtained from the local welfare officer of the University of Eastern Finland.

hABHD12 [3] = molecular target: T1, hABHD12; experiment: Fluorescent glycerol assay of 1-AG hydrolysis in hABHD12-HEK293 lysates; settings: hABHD12-HEK293 lysates; for Emax: read-out: max inhibition (converted)
Method: as §1

CB1R [4] = molecular target: T6, CB1R; experiment: [35S]GTPγS binding, CB1R agonist activity, rat cerebellar membranes; settings: 10 µM
Method: as §2, §3

ABHD12 = molecular target: T7, ABHD12 (Mus musculus, UniProt Q99LR1); experiment: Competitive ABPP with TAMRA-FP in mouse brain membrane proteome; settings: mouse brain membranes, 1 h inhibitor, 1 h probe
T7 construct: the sole serine hydrolase targeted by the triterpenoids in native brain membrane proteome; from tissue; host or cells: mouse whole-brain membranes
T7 sequence (Q99LR1 1-398): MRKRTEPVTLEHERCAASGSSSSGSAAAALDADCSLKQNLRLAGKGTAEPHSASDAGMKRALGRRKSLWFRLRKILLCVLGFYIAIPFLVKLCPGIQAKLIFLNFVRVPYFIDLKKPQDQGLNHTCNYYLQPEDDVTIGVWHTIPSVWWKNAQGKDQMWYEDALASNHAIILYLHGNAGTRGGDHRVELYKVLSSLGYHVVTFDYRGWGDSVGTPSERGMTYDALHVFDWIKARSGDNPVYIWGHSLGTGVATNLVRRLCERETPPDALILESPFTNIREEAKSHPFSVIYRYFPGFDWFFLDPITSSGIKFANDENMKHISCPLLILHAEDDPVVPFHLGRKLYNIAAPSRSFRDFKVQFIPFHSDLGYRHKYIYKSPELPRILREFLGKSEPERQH
Method: (§4) Competitive ABPP using HEK293 cell lysates and mouse brain membranes was conducted to visualize effects of selected triterpenoids on the binding of the active site serine-targeting fluorescent fluorophosphonate probe TAMRA-FP following outlines of previous protocols, [31]. Briefly, lysates (25 µg) of HEK293 cells with or without (Mock) hABHD12 overexpression or mouse wholebrain membranes (100 µg) were treated for 1 h with DMSO or the inhibitor, after which TAMRA-FP labelling was conducted for 5 min (lysates) or 1 hour (membranes) at RT (final probe concentration 2 µM). The reaction was quenched by addition of gel loading buffer (followed by boiling for 5 min in the case of lysates), after which 10 µg protein (10 µl) was loaded per lane and the proteins were resolved in 10% SDS-PAGE together with standards. TAMRA-FP labeling was visualized (λex 552; λem 575 nm) by a fluorescent reader (FLA-3000 laser fluorescence scanner, Fujifilm, Tokyo, Japan). The intensity of bands was quantified using ImageJ, a freely available image analysis software (http://rsbweb.nih.gov/ij/).
as §3

hABHD12 [5] = molecular target: T1, hABHD12; experiment: Competitive ABPP with TAMRA-FP in hABHD12-HEK293 lysates; settings: 1 h inhibitor, 5 min probe
Method: as §4

[6] = test system: metabolic serine hydrolases; experiment: Competitive ABPP, other serine hydrolases of mouse brain membrane proteome
Method: as §4
For ABPP experiments (Figure 6C) and cannabinoid receptor activity assays (Table S2), membranes prepared from brain tissue of 4-week-old male rodents were used. The animals were obtained from the National Laboratory Animal Centre, University of Eastern Finland. […]

[7] = three independent experiments, read-out: -logIC50±s.e.m. (converted)

Structure (SMILES) | time-dependency of inhibitor potency (IC50) after 40-fold dilution (hABHD12 [1]) | remaining activity at 10 µM (hFAAH) | remaining activity at 10 µM (hMAGL) | CB2R agonist activity [35S]GTPγS binding % Basal (Mean (range), n=2) (hCB2R) | remaining activity at 10 µM (hABHD6) | CB1R antagonist activity [35S]GTPγS binding % HU210-evoked response (Mean (range), n=2) (CB1R [2]) | IC50 (hABHD12 [3]; [7]) | IC50 (hABHD12 [3]; read-out: IC50) | Emax (hABHD12 [3]) | CB1R agonist activity [35S]GTPγS binding % Basal (Mean (range), n=2) (CB1R [4]) | TAMRA-FP probe labeling of ABHD12 (ABHD12) | remaining activity at 10 µM (hABHD12 [3]; 10 µM, NI = no inhibition, read-out: Remaining activity at 10 µM % ± s.e.m.) | TAMRA-FP probe labeling of hABHD12 (hABHD12 [5]) | additional targets among the metabolic serine hydrolases [6]
C=C(C)C1CCC2(C(=O)O)CCC3(C)C(CCC4C5(C)Cc6c([nH]c7ccccc67)C(C)(C)C5CCC43C)C12 (stereo not drawn) [Compound 33] | time-dependent drop of inhibitor potency | 90% | 74.8 ± 4.6% | 102 (90-114) % Basal | 81 ± 4.3% | 97 (96-98) % HU210-evoked response | 933 nM | 900 nM | 65% | 95 (94-96) % Basal |  |  |  | 
C=C(C)[C@@H]1CC[C@]2(C(=O)N3CCCCC3)CC[C@]3(C)[C@H](CC[C@@H]4[C@@]5(C)CC[C@H](O)C(C)(C)[C@@H]5CC[C@]43C)[C@@H]12 [Compound 22] |  |  |  |  |  |  |  |  |  |  | ineffective, even at 200 µM concentration | 94 ± 0.5% | lacked activity; also recorded: ineffective | 
C=C(C)[C@@H]1CC[C@]2(C(=O)O)CC[C@]3(C)[C@H](CC[C@@H]4[C@@]5(C)Cc6c([nH]c7ccc(OC)cc67)C(C)(C)[C@@H]5CC[C@]43C)[C@@H]12 [Compound 34] | time-dependent drop of inhibitor potency |  |  |  |  |  | 1620 nM |  | 100% |  |  |  |  | 
CC(C)[C@@H]1CC[C@]2(C(=O)O)CC[C@]3(C)[C@H](CC[C@@H]4[C@@]5(C)CCC(=O)C(C)(C)[C@@H]5CC[C@]43C)[C@@H]12 [Compound 23] |  | 98% | 77.5 ± 3.1% | 98 (95-100) % Basal | 83 ± 2.8% | 92 (90-95) % HU210-evoked response | 1620 nM |  | 89% | 89 (86-92) % Basal | selectively inhibited probe labeling of ABHD12; also recorded: dose-dependently inhibit TAMRA-FP labeling of ABHD12 already at 20 µM |  | dose-dependently inhibited probe labeling of hABHD12 | no additional targets are evident
CCCCCCCCCCC[C@@H](C[C@@H]1OC(=O)[C@H]1CCCCCC)OC(=O)[C@H](CC(C)C)NC=O [THL, tetrahydrolipstatin, reference compound] | remained constant; also recorded: does not change in a statistically significant manner |  |  |  |  |  |  |  |  |  | prevented TAMRA-FP labeling |  | fully prevented | 
